Patent US20110112299A1, “TETRACYCLIC COMPOUND” (KYOWA HAKKO KIRIN CO., LTD., priority 2008, published 2011)

Experiments:
[1] = test system: transcription-promoting activity via the glucocorticoid receptor (A549/MMTV-LTR cells); assay type: cell-based; settings: at a concentration of 300 nmol/L; relative to dexamethasone
Experimental: A pGL4.14 plasmid (Promega, product number: AY864928) having a cloned MMTV-LTR fragment upstream of the luciferase gene (−200 to +100 relative to the transcription initiation site) was introduced into A549 cells, and the obtained strain which is constitutively resistant to a selective antibiotic hygromycin B (A549/MMTV-LTR) was used for evaluation. The A549/MMTV-LTR cells were transferred to a 96-well plate (25000 cells/well) and were cultured overnight. […] Next, 20 μL of the test compound diluted to 5-fold of the desired concentration with F-12 medium or 20 μL of 4 μmol/L dexamethasone was added thereto, and the mixture was incubated under 5% CO2 at 37° C. for 6 hours. To each well, 50 μL of a luminescence reagent (Promega, product number: E2550 or E2650) was added, and the mixture was stirred to dissolve the cells, and the luciferase activity was measured by a plate reader (PerkinElmer, TopCount).
MMTV activity (%)=100×(luminescence amount in the presence of the compound−luminescence amount in the absence of the compound)/(luminescence amount in the presence of dexamethasone−luminescence amount in the absence of the compound)

[2] = target: T1, recombinant human glucocorticoid receptor (Homo sapiens, UniProt P04150); test: Human glucocorticoid receptor assay (2) (fluorescence polarization, Test Example 5); assay type: binding; settings: for selectivity for human glucocorticoid receptor over progesterone receptor: from the results of Test Examples 5 and 6
T1 construct: purchased Panvera/Invitrogen P2812 (kit P2893)
T1 sequence (P04150 1-777): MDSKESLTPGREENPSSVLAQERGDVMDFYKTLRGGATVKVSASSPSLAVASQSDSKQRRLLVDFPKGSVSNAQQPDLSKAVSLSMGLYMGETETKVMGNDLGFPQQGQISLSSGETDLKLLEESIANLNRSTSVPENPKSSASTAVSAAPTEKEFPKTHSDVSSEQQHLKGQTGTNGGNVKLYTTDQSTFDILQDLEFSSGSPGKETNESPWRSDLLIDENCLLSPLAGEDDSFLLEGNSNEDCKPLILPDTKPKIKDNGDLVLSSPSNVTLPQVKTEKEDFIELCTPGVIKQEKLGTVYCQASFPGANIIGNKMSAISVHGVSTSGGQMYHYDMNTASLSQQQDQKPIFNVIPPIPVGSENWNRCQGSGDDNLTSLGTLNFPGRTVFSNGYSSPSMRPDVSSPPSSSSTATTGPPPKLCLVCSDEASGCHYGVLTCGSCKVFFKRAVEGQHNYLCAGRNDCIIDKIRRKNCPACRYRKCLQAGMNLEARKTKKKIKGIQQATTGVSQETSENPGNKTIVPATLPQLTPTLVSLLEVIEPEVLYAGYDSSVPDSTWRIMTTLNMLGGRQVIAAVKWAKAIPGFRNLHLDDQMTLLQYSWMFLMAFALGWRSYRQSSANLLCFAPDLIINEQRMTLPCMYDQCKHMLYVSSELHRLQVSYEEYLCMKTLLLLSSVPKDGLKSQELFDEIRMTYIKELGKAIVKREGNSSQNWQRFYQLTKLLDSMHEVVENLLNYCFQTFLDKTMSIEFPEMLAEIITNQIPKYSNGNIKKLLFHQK
Experimental: In this assay, a fluorescence polarization assay kit (Panvera/Invitrogen, product number: P2893) was used. The recombinant human glucocorticoid receptor (product number: P2812), the Fluoromore (trademark)-labeled dexamethasone (GS Green, product number: P2813), the stabilizing peptide solution (product number: P2815), and the basic buffer solution (product number: P2814) which were used in the assay kit had been stored at −80° C. until used. A buffer solution for the assay was prepared by adding the basic buffer solution (10 fold dilution), the stabilizing peptide solution (10 fold dilution), and 1 mol/L DTT (dithiothreitol) (1000 fold dilution to give a final concentration of 1 mmol/L).
The assay was performed as follows. The test compound was diluted to 2-fold of the desired concentration with the buffer solution for the assay, and 16 μL of that was added to each well. Next, the Fluoromore (trademark)-labeled dexamethasone was diluted with the buffer solution for the assay so as to be 4 nmol/L, and 8 μL of that was added to each well. Further, the recombinant human glucocorticoid receptor was diluted with the buffer solution for the assay so as to be 16 nmol/L, and 8 μL of that was added to each well. After stirring the mixture, the mixture was incubated under a light-shielded condition at room temperature for 2 hours or more. The fluorescence polarization value of each well was measured using a plate reader (PerkinElmer, Fusion or Envision). To a negative control group, the compound was not added. To a positive control group, dexamethasone was added so as to give a final concentration of 1 μmol/L. The glucocorticoid receptor binding inhibitory rate (%) was calculated by the following formula.
Glucocorticoid receptor binding inhibitory rate (%)=100×[1−(fluorescence polarization value of test compound solution−fluorescence polarization value of positive control solution)/(fluorescence polarization value of negative control solution−fluorescence polarization value of positive control solution)]

[3] = test system: IL-1β induced IL-6 production (A549 cells); test: Inhibition assay for IL-1β induced IL-6 production in A549 cells (Test Example 3); assay type: cell-based, human; settings: Homo sapiens, at a concentration of 100 nmol/L, IL-1β stimulation, relative to dexamethasone, read-out: IL-6 production inhibitory activity
Experimental: A549 cells cultured in F-12 medium supplemented with 10% bovine serum for 3 to 5 days were transferred to a 96-well plate (50000 cells/well) and then were cultured overnight. […] After the medium was removed by suction, 60 μL of F-12 medium was added to each well, and 20 μL of the test compound diluted to 5-fold of the desired concentration with F-12 medium or 20 μL of 4 μmol/L dexamethasone was added thereto. The test compound and the dexamethasone used here were prepared beforehand by dissolving in dimethyl sulfoxide (DMSO) and diluting with F-12 medium so that the final concentration of DMSO became 0.1% v/v or lower. After 30-minute incubation under 5% CO2 atmosphere at 37° C., 20 μL of 4 nmol/L IL-1β diluted with F-12 medium was added to each well, and then incubation was performed under a 5% CO2 atmosphere at 37° C. for 12 to 18 hours. The 96-well plate was centrifuged at 300×g at 4° C. for 5 minutes, and then the culture supernatant was collected for use as a sample for IL-6 measurement. The IL-6 produced in the culture supernatant was quantified by the ELISA method (R&D Systems, product number: DY206, DouSet ELISA Development System Human IL-6), and the production inhibition rate was calculated by the following formula. […]

Row | SMILES | MMTV activity [1] [%] | selectivity for human glucocorticoid receptor over progesterone receptor [2] | also measured
1 | CC/C(=C1\c2cc3cnn(C(C)C)c3cc2COc2ccccc21)c1cccc(NS(C)(=O)=O)c1 [Compound 8, (Z)-5-{1-[3-(methanesulfonamide)phenyl]propylidene}-1-isopropyl-5,11-dihydro-1H-indazolo[5,6-e]benzo[b]oxepin] | 22 |  | 
2 | CC/C(=C1\c2cc3cnn(C(C)C)c3cc2COc2ncccc21)c1cccc(NS(C)(=O)=O)c1 [Compound 25, (Z)-1-isopropyl-5-{1-[3-(methanesulfonamide)phenyl]propylidene}-5,11-dihydro-1H-indazolo[5,6-e]pyrido-[2,3-b]oxepin] |  | selective binding activity to human glucocorticoid receptors | 
3 | CC/C(=C1\c2cc3cnn(C4CC4)c3cc2COc2ncccc21)c1cccc(NS(C)(=O)=O)c1 [Compound 34, (Z)-1-cyclopropyl-5-{1-[3-(methanesulfonamide)phenyl]propylidene}-5,11-dihydro-1H-indazolo[5,6-e]pyrido[2,3-b]oxepin] | 25 | selective binding activity to human glucocorticoid receptors | 
4 | CC/C(=C1\c2cc3cnn(-c4ccc(F)cc4)c3cc2COc2ncccc21)c1cccc(NS(C)(=O)=O)c1 [Compound 43, (Z)-1-(4-fluorophenyl)-5-{1-[3-(methanesulfonamide)phenyl]-propylidene}-5,11-dihydro-1H-indazolo[5,6-e]pyrido[2,3-b]oxepin] |  | selective binding activity to human glucocorticoid receptors | 
5 | CC/C(C(=O)Nc1nccs1)=C1\c2cc3cnn(-c4ccc(F)cc4)c3cc2COc2ccccc21 [Compound 89, (Z)-1-(4-fluorophenyl)-5-{1-[(thiazole-2-yl)aminocarbonyl]propylidene}-5,11-dihydro-1H-indazolo[5,6-e]benzo[b]oxepin] |  |  | inhibition at 0.1 µM ([2]; at a concentration of 100 nmol/L, read-out: glucocorticoid receptor binding inhibitory activity): ≥ 80%; inhibition at 0.1 µM [3]: ≥ 80%
6 | C[C@@H]1C[C@H]2[C@@H]3CCC4=CC(=O)C=C[C@]4(C)[C@@]3(F)[C@@H](O)C[C@]2(C)[C@@]1(O)C(=O)CO [dexamethasone, reference compound] | ≥ 100 |  | 
7 | C[C@]12C=CC(=O)C=C1CC[C@@H]1[C@@H]2[C@@H](O)C[C@@]2(C)[C@H]1CC[C@]2(O)C(=O)CO [prednisolone, reference compound] | ≥ 80 |  | 
